Experimental data reported in PubChem BioAssay AID1259407 (Chemical Carcinogenesis Research Information System (CCRIS), 2018).
Activity calls are given as the source filed them. How the calls were made is not given here.

Test system: CCRIS mutagenicity, Ames/micronucleus/aberration tests
Test: CCRIS mutagenicity studies
[1] = Test System: AMES SALMONELLA TYPHIMURIUM, Strain/Indicator: TA97, Metabolic Activation: NONE, Method: PREINCUBATION
[2] = Test System: AMES SALMONELLA TYPHIMURIUM, Strain/Indicator: TA98, Metabolic Activation: HAMSTER, LIVER, S-9, AROCLOR 1254 (10%), Method: PREINCUBATION
[3] = Test System: AMES SALMONELLA TYPHIMURIUM, Strain/Indicator: TA98, Metabolic Activation: HAMSTER, LIVER, S-9, AROCLOR 1254 (30%), Method: PREINCUBATION
[4] = Test System: AMES SALMONELLA TYPHIMURIUM, Strain/Indicator: TA98, Metabolic Activation: NONE, Method: PREINCUBATION
[5] = Test System: AMES SALMONELLA TYPHIMURIUM, Strain/Indicator: TA98, Metabolic Activation: RAT, LIVER, S-9, AROCLOR 1254 (10%), Method: PREINCUBATION
[6] = Test System: AMES SALMONELLA TYPHIMURIUM, Strain/Indicator: TA98, Metabolic Activation: RAT, LIVER, S-9, AROCLOR 1254 (30%), Method: PREINCUBATION
[7] = Test System: AMES SALMONELLA TYPHIMURIUM, Strain/Indicator: TA100, Metabolic Activation: HAMSTER, LIVER, S-9, AROCLOR 1254 (10%), Method: PREINCUBATION
[8] = Test System: AMES SALMONELLA TYPHIMURIUM, Strain/Indicator: TA100, Metabolic Activation: HAMSTER, LIVER, S-9, AROCLOR 1254 (30%), Method: PREINCUBATION
[9] = Test System: AMES SALMONELLA TYPHIMURIUM, Strain/Indicator: TA100, Metabolic Activation: NONE, Method: PREINCUBATION
[10] = Test System: AMES SALMONELLA TYPHIMURIUM, Strain/Indicator: TA100, Metabolic Activation: RAT, LIVER, S-9, AROCLOR 1254 (10%), Method: PREINCUBATION
[11] = Test System: AMES SALMONELLA TYPHIMURIUM, Strain/Indicator: TA100, Metabolic Activation: RAT, LIVER, S-9, AROCLOR 1254 (30%), Method: PREINCUBATION
[12] = Test System: AMES SALMONELLA TYPHIMURIUM, Strain/Indicator: TA1535, Metabolic Activation: HAMSTER, LIVER, S-9, AROCLOR 1254 (10%), Method: PREINCUBATION
[13] = Test System: AMES SALMONELLA TYPHIMURIUM, Strain/Indicator: TA1535, Metabolic Activation: HAMSTER, LIVER, S-9, AROCLOR 1254 (30%), Method: PREINCUBATION
[14] = Test System: AMES SALMONELLA TYPHIMURIUM, Strain/Indicator: TA1535, Metabolic Activation: NONE, Method: PREINCUBATION
[15] = Test System: AMES SALMONELLA TYPHIMURIUM, Strain/Indicator: TA1535, Metabolic Activation: RAT, LIVER, S-9, AROCLOR 1254 (10%), Method: PREINCUBATION
[16] = Test System: AMES SALMONELLA TYPHIMURIUM, Strain/Indicator: TA1535, Metabolic Activation: RAT, LIVER, S-9, AROCLOR 1254 (30%), Method: PREINCUBATION
[17] = Test System: AMES SALMONELLA TYPHIMURIUM, Strain/Indicator: TA1537, Metabolic Activation: NONE, Method: PREINCUBATION

Measured: mutagenic call

OCCN1CCN(CCCN2c3ccccc3Sc3ccc(C(F)(F)F)cc32)CC1
inactive: Test System: AMES SALMONELLA TYPHIMURIUM, Strain/Indicator: TA98, Metabolic Activation: NONE inactive; negative | Test System: AMES SALMONELLA TYPHIMURIUM, Strain/Indicator: TA98, Metabolic Activation: RAT, LIVER, S-9, PHENOBARBITAL AND 5,6-BENZOFLAVONE inactive; negative | Test System: AMES SALMONELLA TYPHIMURIUM, Strain/Indicator: TA100, Metabolic Activation: NONE inactive; negative | Test System: AMES SALMONELLA TYPHIMURIUM, Strain/Indicator: TA100, Metabolic Activation: RAT, LIVER, S-9, PHENOBARBITAL AND 5,6-BENZOFLAVONE inactive; negative | Test System: AMES SALMONELLA TYPHIMURIUM, Strain/Indicator: TA1535, Metabolic Activation: NONE inactive; negative | Test System: AMES SALMONELLA TYPHIMURIUM, Strain/Indicator: TA1535, Metabolic Activation: RAT, LIVER, S-9, PHENOBARBITAL AND 5,6-BENZOFLAVONE inactive; negative | Test System: AMES SALMONELLA TYPHIMURIUM, Strain/Indicator: TA1537, Metabolic Activation: NONE inactive; negative | Test System: AMES SALMONELLA TYPHIMURIUM, Strain/Indicator: TA1537, Metabolic Activation: RAT, LIVER, S-9, PHENOBARBITAL AND 5,6-BENZOFLAVONE inactive; negative | Test System: E. COLI, Strain/Indicator: WP2 UVRA, Metabolic Activation: NONE inactive; negative | Test System: E. COLI, Strain/Indicator: WP2 UVRA, Metabolic Activation: RAT, LIVER, S-9, PHENOBARBITAL AND 5,6-BENZOFLAVONE inactive; negative

Cc1ccc(CO)cc1
inactive: Test System: AMES SALMONELLA TYPHIMURIUM, Strain/Indicator: TA97, Metabolic Activation: HAMSTER, LIVER, S-9, AROCLOR 1254 (10%), Method: PREINCUBATION inactive; negative | Test System: AMES SALMONELLA TYPHIMURIUM, Strain/Indicator: TA97, Metabolic Activation: HAMSTER, LIVER, S-9, AROCLOR 1254 (30%), Method: PREINCUBATION inactive; negative | [1] inactive; negative | Test System: AMES SALMONELLA TYPHIMURIUM, Strain/Indicator: TA97, Metabolic Activation: RAT, LIVER, S-9, AROCLOR 1254 (10%), Method: PREINCUBATION inactive; negative | Test System: AMES SALMONELLA TYPHIMURIUM, Strain/Indicator: TA97, Metabolic Activation: RAT, LIVER, S-9, AROCLOR 1254 (30%), Method: PREINCUBATION inactive; negative | [2] inactive; negative | [3] inactive; negative | [4] inactive; negative | [5] inactive; negative | [6] inactive; negative | [7] inactive; negative | [8] inactive; negative | [9] inactive; negative | Test System: AMES SALMONELLA TYPHIMURIUM, Strain/Indicator: TA100, Metabolic Activation: NONE, Method: STANDARD PLATE inactive; negative | [10] inactive; negative | [11] inactive; negative | [12] inactive; negative | [13] inactive; negative | [14] inactive; negative | [15] inactive; negative | [16] inactive; negative | Test System: AMES SALMONELLA TYPHIMURIUM, Strain/Indicator: TA1537, Metabolic Activation: HAMSTER, LIVER, S-9, AROCLOR 1254 (30%), Method: PREINCUBATION inactive; negative | [17] inactive; negative | Test System: AMES SALMONELLA TYPHIMURIUM, Strain/Indicator: TA1537, Metabolic Activation: RAT, LIVER, S-9, AROCLOR 1254 (30%), Method: PREINCUBATION inactive; negative

CC(CN1c2ccccc2Sc2ccccc21)N(C)C (stereo not given)
inactive: End Point: IN VITRO CHROMOSOMAL ABERRATIONS, Test System: CHINESE HAMSTER OVARY CELLS, Metabolic Activation: NONE inactive; negative | End Point: IN VITRO CHROMOSOMAL ABERRATIONS, Test System: CHINESE HAMSTER OVARY CELLS, Metabolic Activation: RAT, LIVER, S-9, AROCLOR 1254 inactive; negative | Test System: AMES SALMONELLA TYPHIMURIUM, Strain/Indicator: TA97, Metabolic Activation: HAMSTER, LIVER, S-9, AROCLOR 1254 (10 OR 30%), Method: PREINCUBATION inactive; negative | [1] inactive; negative | Test System: AMES SALMONELLA TYPHIMURIUM, Strain/Indicator: TA97, Metabolic Activation: RAT, LIVER, S-9, AROCLOR 1254 (10 OR 30%), Method: PREINCUBATION inactive; negative | [2] inactive; negative | [3] inactive; negative | [4] inactive; negative | Test System: AMES SALMONELLA TYPHIMURIUM, Strain/Indicator: TA98, Metabolic Activation: NONE, Method: SPOT TEST inactive; negative | [5] inactive; negative | [6] inactive; negative | [7] inactive; negative | [8] inactive; negative | [9] inactive; negative | [10] inactive; negative | [11] inactive; negative | [12] inactive; negative | [13] inactive; negative | [14] inactive; negative | [15] inactive; negative | [16] inactive; negative | Test System: AMES SALMONELLA TYPHIMURIUM, Strain/Indicator: TA1537, Metabolic Activation: HAMSTER, LIVER, S-9, AROCLOR 1254 (10%), Method: PREINCUBATION inactive; negative | [17] inactive; negative | Test System: AMES SALMONELLA TYPHIMURIUM, Strain/Indicator: TA1537, Metabolic Activation: RAT, LIVER, S-9, AROCLOR 1254 (10%), Method: PREINCUBATION inactive; negative | Test System: CHINESE HAMSTER V-79, Strain/Indicator: V-79/6-THIOGUANINE, Metabolic Activation: NONE inactive; negative | Test System: CHINESE HAMSTER V-79, Strain/Indicator: V-79/OUABAIN, Metabolic Activation: NONE inactive; negative
